Measured values from US20250145564A1, “SULFONYLUREA COMPOUND, PREPARATION METHOD THEREFOR, AND APPLICATION THEREOF” (SHANGHAI INSTITUTE OF MATERIA MEDICA, CHINESE ACADEMY OF …, priority 2021, published 2025).
pIC50: −log10 of the molar value.

What was measured:
sEH (human recombinant) = target: T1, sEH (human recombinant) (Homo sapiens, UniProt P34913); assay: sEH inhibition assay (fluorescence);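 also: enzyme preincubated with compound 30 min at 25 °C, then substrate added and fluorescence read after 15 min at 25 °C, 320 nm and 460 nm, versus DMSO negative control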
T1 sequence (P34913 1-555): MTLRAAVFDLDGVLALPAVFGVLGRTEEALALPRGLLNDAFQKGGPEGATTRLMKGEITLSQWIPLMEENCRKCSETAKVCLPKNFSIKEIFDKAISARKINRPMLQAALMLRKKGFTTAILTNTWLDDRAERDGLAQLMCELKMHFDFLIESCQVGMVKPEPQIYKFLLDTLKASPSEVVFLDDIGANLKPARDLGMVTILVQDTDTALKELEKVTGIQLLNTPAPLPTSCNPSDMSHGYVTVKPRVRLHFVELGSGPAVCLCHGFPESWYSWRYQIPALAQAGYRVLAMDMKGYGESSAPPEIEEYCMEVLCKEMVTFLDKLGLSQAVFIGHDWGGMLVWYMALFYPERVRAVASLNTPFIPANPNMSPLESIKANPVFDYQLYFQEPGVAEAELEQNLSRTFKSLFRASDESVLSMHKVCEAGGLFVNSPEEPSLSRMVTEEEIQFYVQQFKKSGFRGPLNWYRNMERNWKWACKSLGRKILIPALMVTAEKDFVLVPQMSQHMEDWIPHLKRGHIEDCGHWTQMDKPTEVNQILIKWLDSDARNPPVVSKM
Protocol: sEH Assay Buffer was purchased from Cayman Chemical; sEH (human recombinant) was purchased from Cayman Chemical; sEH substrate was purchased from Cayman Chemical. The working solution of 20% DMSO for the compounds was prepared by mixing dimethyl sulfoxide with water in a volume ratio of 1:4, and shaking to mix well.
sEH Assay Buffer (10×), SEH (human recombinant) and sEH substrate were thawed on ice.
The sEH Assay Buffer (lux) was prepared into a 1×sEH Assay Buffer with deionized water. 12 μL of sEH was added with 588 µL of 1× Assay Buffer to be diluted 50 times to obtain a sEH working solution. 180 µL of 1× Assay Buffer was added into the corresponding wells; the sEH working solution was added to the corresponding wells at 5 μL/well; the working solution of 20% DMSO for the compounds was added into the corresponding wells at 5 μL/well, and blank wells and negative control wells added with an equal amount of DMSO were set. After centrifuged at 1000 rpm for 1 minute, the wells were incubated at 25° C. for 30 minutes. After incubation, the substrate was added into the 96-wells plate at 5 μL/well and the plate was centrifuged at 1000 rpm for 1 minute. After incubation at 25° C. for 15 minutes, fluorescence values were read at emission wavelengths of 320 nm and 460 nm.

[1] = system: mice with chronic heart failure (TAC); assay: TAC mouse model, comparison of I-23 and Empagliflozin; type: in vivo; conditions: mice, daily gavage eight weeks; I-23 0.44 mg/kg; Empagliflozin 10 mg/kg
Excerpt: 12-week-old male C57BL/6 mice, which were purchased from Gempharmatech Co., Ltd, were raised in the SPF animal house of Tongji Medical College, Huazhong University of Science and Technology. After one week of acclimatization in the animal house, the mice were subjected to thoracic aortic constriction as the TAC group. Another group of mice were subjected to thoracotomy without ligation of thoracic aorta as Sham group. Meanwhile, AUDA was used as the positive control.
Cardiac ultrasound detection was performed on a Visual Sonics Vevo 2100 small animal ultrasound imager. The major measurement indicators include heart rate (HR), left ventricular ejection fraction (LVEF), left ventricular fractional shortening (LVFS), left ventricular internal dimension-diastole (LVIDd) and left ventricular internal dimension-systole (LVIDs), and left ventricular posterior wall thickness (LVPWd and LVPWs).
The detection was performed on a Millar pressure-volume system from Millar Instr Ment PowerLab. After the animals were anesthetized to an appropriate extent, a midline incision was made in the neck, the right common carotid artery was separated, ligated at the distal end and clipped at the proximal end. A V-shaped incision was made on the artery with microscissors, and a microcatheter was inserted to the left ventricle. Signals were recorded through a conduction system to obtain hemodynamic data such as heart rate (HR), left ventricular end diastolic pressure (PED), left ventricular end systolic pressure (PES), maximum rate of decrease in left ventricular pressure (−dp/dtmin), and maximum rate of increase in left ventricular pressure (+dP/dtmax).
The myocardial tissue was placed in an embedding frame, soaked and fixed in neutral formaldehyde solution, dehydrated, and embedded in paraffin. The paraffin block was then sliced into sections with a thickness of 4 μm on a microtome. The general appearance of the myocardium was observed through HE staining, and the myocardial fibrosis was observed through Sirius red staining.
Total RNA was extracted using Invitrogen's Trizol reagent, then cDNA was obtained using TAKARA's reverse transcription kit, and finally the mRNA content of related genes was amplified with specific primers.
Cardiac ultrasound examination was performed two weeks after TAC surgery. 24 TAC mice with no significant difference in cardiac function were selected and randomly divided into a model group (TAC) and a treatment group (TAC+compound). The model group received no other treatment, while the treatment group received daily gavage (0.44 mg/kg for I-23 or 10 mg/kg for Empagliflozin). Eight weeks later, i.e., at the chronic heart failure phase, the animals were sacrificed, and tissue specimens were collected to perform the above detections.
This experiment was to compare the ameliorative effects of I-23 and Empagliflozin on chronic heart failure.

pIC50 (sEH (human recombinant)) | SMILES | other results
> 6.70 | COc1ccc2c(c1)C(=O)N(CCc1ccc(S(=O)(=O)N(C)C(=O)NC3CCCCC3)cc1)C(=O)C2(C)C [Compound I-2] | –
> 6.70 | COc1ccc(Cl)cc1C(=O)NCCc1ccc(S(=O)(=O)N(C)C(=O)NC2CCCCC2)cc1 [Compound I-3] | –
6.00 to 6.70 | CC(=O)c1ccc(S(=O)(=O)N(C)C(=O)NC2CCCCC2)cc1 [Compound I-5] | –
5.00 to 6.00 | C=CCN(C(=O)N[C@H]1CC[C@H](C)CC1)S(=O)(=O)c1ccc(CCNC(=O)N2CC(C)=C(CC)C2=O)cc1 [Compound I-6] | –
5.00 to 6.00 | Cc1ccc(S(=O)(=O)N(C(=O)NN2CC3CCCC3C2)C(C)C)cc1 (stereo not drawn) [Compound I-7] | –
5.00 to 6.00 | CCC1=C(C)CN(C(=O)NCCc2ccc(S(=O)(=O)N(C(=O)N[C@H]3CC[C@H](C)CC3)C3CC3)cc2)C1=O [Compound I-8] | –
6.00 to 6.70 | CCC1=C(C)CN(C(=O)NCCc2ccc(S(=O)(=O)N(C)C(=O)N[C@H]3CC[C@H](CO)CC3)cc2)C1=O [Compound I-9] | –
6.00 to 6.70 | CCNC(=O)OC[C@H]1CC[C@H](NC(=O)NS(=O)(=O)c2ccc(CCNC(=O)N3CC(C)=C(CC)C3=O)cc2)CC1 [Compound I-10] | –
> 6.70 | CCNC(=O)OC[C@H]1CC[C@H](NC(=O)N(C)S(=O)(=O)c2ccc(CCNC(=O)N3CC(C)=C(CC)C3=O)cc2)CC1 [Compound I-11] | –
6.00 to 6.70 | CCC1=C(C)CN(C(=O)NCCc2ccc(S(=O)(=O)NC(=O)N[C@H]3CC[C@H](COC(=O)NC4CC4)CC3)cc2)C1=O [Compound I-12] | –
5.00 to 6.00 | CCC1=C(C)CN(C(=O)NCCc2ccc(S(=O)(=O)NC(=O)N[C@H]3CC[C@H](COC(=O)Nc4ccc(OC(F)(F)F)cc4)CC3)cc2)C1=O [Compound I-13] | –
4.00 to 5.00 | CCC1=C(C)CN(C(=O)NCCc2ccc(S(=O)(=O)NC(=O)N[C@H]3CC[C@H](COC(=O)CN(C)C)CC3)cc2)C1=O [Compound I-14] | –
6.00 to 6.70 | CCC1=C(C)CN(C(=O)NCCc2ccc(S(=O)(=O)NC(=O)N[C@H]3CC[C@H](COC(=O)CN4CCCCC4)CC3)cc2)C1=O [Compound I-16] | –
4.00 to 5.00 | CCC1=C(C)CN(C(=O)NCCc2ccc(S(=O)(=O)NC(=O)N[C@H]3CC[C@H](C(=O)OC(C)OC(=O)OC4CCCCC4)CC3)cc2)C1=O (stereo partly drawn) [Compound I-17] | –
4.00 to 5.00 | CCC1=C(C)CN(C(=O)NCCc2ccc(S(=O)(=O)NC(=O)N[C@H]3CC[C@H](COP(=O)(OCOC(=O)OC(C)C)OCOC(=O)OC(C)C)CC3)cc2)C1=O [Compound I-18] | –
4.00 to 5.00 | CCC1=C(C)CN(C(=O)NCCc2ccc(S(=O)(=O)N(C)C(=O)N[C@H]3CC[C@H](COCP(=O)(OCOC(=O)OC(C)C)OCOC(=O)OC(C)C)CC3)cc2)C1=O [Compound I-21] | –
5.00 to 6.00 | CCC1=C(C)CN(C(=O)NCCc2ccc(S(=O)(=O)N(C)C(=O)N[C@H]3CC[C@H](COC(C)=O)CC3)cc2)C1=O [Compound I-24] | –
6.00 to 6.70 | CCC1=C(C)CN(C(=O)NCCc2ccc(S(=O)(=O)NC(=O)N[C@H]3CC[C@H](COC)CC3)cc2)C1=O [Compound I-25] | –
5.00 to 6.00 | CCC1=C(C)CN(C(=O)NCCc2ccc(S(=O)(=O)NC(=O)NC3CCC(C(=O)OC)CC3)cc2)C1=O (stereo not drawn) [Compound I-26] | –

pIC50 (sEH (human recombinant)) | SMILES | other results
4.00 to 5.00 | CCC1=C(C)CN(C(=O)NCCc2ccc(S(=O)(=O)N(C)C(=O)NC3CCC(C(=O)O)CC3)cc2)C1=O (stereo not drawn) [Compound I-27] | –
5.00 to 6.00 | CCC1=C(C)CN(C(=O)NCCc2ccc(S(=O)(=O)NC(=O)NC3CCC(C(=O)NC)CC3)cc2)C1=O (stereo not drawn) [Compound I-29] | –
4.00 to 5.00 | CCCC1=C(C)CN(C(=O)NCCc2ccc(S(=O)(=O)NC(=O)NC3CCC(C(=O)OC)CC3)cc2)C1=O (stereo not drawn) [Compound I-30] | –
5.00 to 6.00 | CCC1=C(C)CN(C(=O)NCCc2ccc(S(=O)(=O)NC(=O)N[C@H]3CC[C@H](OC(N)=O)CC3)cc2)C1=O [Compound I-31] | –
5.00 to 6.00 | Cc1cnc(C(=O)NCCc2ccc(S(=O)(=O)N(C)C(=O)NC3CCCCC3)cc2)cn1 [Compound I-32] | –
5.00 to 6.00 | Cc1ccc(S(=O)(=O)N(C)C(=O)NN2CCCCCC2)cc1 [Compound I-33] | –
5.00 to 6.00 | CCC1=C(C)CN(C(=O)NCCc2ccc(S(=O)(=O)N(C)C(=O)NC3CCC(CC)CC3)cc2)C1=O (stereo not drawn) [Compound I-34] | –
5.00 to 6.00 | Cc1cc(C(=O)NCCc2ccc(S(=O)(=O)N(C)C(=O)NN3CCCCCC3)cc2)no1 [Compound I-35] | –
5.00 to 6.00 | Cc1ccc(S(=O)(=O)N(C)C(=O)NC2[C@@H](O)C3(C)CC[C@@H]2C3(C)C)cc1 (stereo partly drawn) [Compound I-36] | –
5.00 to 6.00 | CCC1=C(C)CN(C(=O)NCCc2ccc(S(=O)(=O)N(CC)C(=O)N[C@H]3CC[C@H](C)CC3)cc2)C1=O [Compound I-37] | –
5.00 to 6.00 | CCC1=C(C)CN(C(=O)NCCc2ccc(S(=O)(=O)N(C(=O)N[C@H]3CC[C@H](C)CC3)C(C)C)cc2)C1=O [Compound I-38] | –
5.00 to 6.00 | CCC(=O)OC[C@H]1CC[C@H](NC(=O)NS(=O)(=O)c2ccc(CCNC(=O)N3CC(C)=C(CC)C3=O)cc2)CC1 [Compound I-39] | –
5.00 to 6.00 | CCC(=O)OC[C@H]1CC[C@H](NC(=O)N(C)S(=O)(=O)c2ccc(CCNC(=O)N3CC(C)=C(CC)C3=O)cc2)CC1 [Compound I-40] | –
5.00 to 6.00 | CCC1=C(C)CN(C(=O)NCCc2ccc(S(=O)(=O)NC(=O)N[C@H]3CC[C@H](COC(=O)C(C)C)CC3)cc2)C1=O [Compound I-41] | –
5.00 to 6.00 | CCC1=C(C)CN(C(=O)NCCc2ccc(S(=O)(=O)N(C)C(=O)N[C@H]3CC[C@H](COC(=O)C(C)C)CC3)cc2)C1=O [Compound I-42] | –
5.00 to 6.00 | CCC1=C(C)CN(C(=O)NCCc2ccc(S(=O)(=O)NC(=O)N[C@H]3CC[C@H](COC(=O)C(C)(C)C)CC3)cc2)C1=O [Compound I-43] | –
5.00 to 6.00 | CCC1=C(C)CN(C(=O)NCCc2ccc(S(=O)(=O)N(C)C(=O)N[C@H]3CC[C@H](COC(=O)C(C)(C)C)CC3)cc2)C1=O [Compound I-44] | –
– | OC[C@H]1O[C@@H](c2ccc(Cl)c(Cc3ccc(O[C@H]4CCOC4)cc3)c2)[C@H](O)[C@@H](O)[C@@H]1O [Empagliflozin, reference compound] | cardiac hypertrophy (heart photographs, heart weight/tibia length HW/TL) [1]: reversal effect; expression of BNP in mouse cardiomyocytes after TAC [1]: can inhibit this effect; impaired cardiac function (EF value, FS value, LVIDs, dp/dt) [1]: can inhibit this effect; positive area of Sirius red staining (myocardial fibrosis) [1]: can inhibit this effect

SMILES | pIC50 (sEH (human recombinant)) | other results
CCC1=C(C)CN(C(=O)NCCc2ccc(S(=O)(=O)NC(=O)N[C@H]3CC[C@H](CO[P@](=O)(N[C@@H](C)C(=O)OC(C)C)Oc4ccccc4)CC3)cc2)C1=O [Compound I-19] | 4.00 to 5.00 | –
CCC1=C(C)CN(C(=O)NCCc2ccc(S(=O)(=O)N(C)C(=O)N[C@H]3CC[C@H](CO[P@](=O)(N[C@@H](C)C(=O)OC(C)C)Oc4ccccc4)CC3)cc2)C1=O [Compound I-22] | 4.00 to 5.00 | –
